Results reported in ChEMBL document CHEMBL2321704, “Cis-amide isosteric replacement in thienobenzoxepin inhibitors of PI3-kinase” (Bioorg Med Chem Lett, 2013).
Converted amounts (≈) assume the structure as drawn.

What was measured:
[1] = molecular target: T1, Phosphatidylinositol 4,5-bisphosphate 3-kinase catalytic subunit alpha isoform (Homo sapiens, UniProt P42336)
Description: Inhibition of PI3Kalpha-mediated AKT Ser 473 phosphorylation in human PC3 cells

[2] = Clearance in human liver microsomes; format: ADME, Microsome
[3] = molecular target: T1, Phosphatidylinositol 4,5-bisphosphate 3-kinase catalytic subunit alpha isoform; assay: Inhibition of recombinant PI3Kalpha (unknown origin)-mediated 3,4,5-inositoltriphosphate formation after 30 mins by TAMRA-PIP3-based competitive fluorescence polarization assay
[4] = Apparent permeability from apical to basal side of MDCK cells; format: ADME, cell-based, Canis lupus familiaris; conditions: dog
[5] = Clearance in rat liver microsomes; format: ADME, Microsome
PC-3 = assay: Antiproliferative activity against human PC3 cells after 4 days by CellTiter-Glo assay; format: functional, cell-based; conditions: PC-3, 96 h
MCF7 = assay: Antiproliferative activity against human MCF7 cells expressing neo-HER2 after 3 days by CellTiter-Glo assay; format: functional, cell-based; conditions: MCF7, 72 h
[6] = Kinetic solubility of the compound by dry down method; format: physicochemical; conditions: read-out: Kinetic_solubility
[7] = Thermodynamic solubility of the compound at pH 7.4; format: physicochemical; conditions: buffer, read-out: Therm_solubility
[8] = Plasma clearance in Sprague-Dawley rat at 1 mg/kg, iv; format: ADME, organism-based; parameters: dose 1 mg/kg, route intravenous
Mus musculus [9] = assay: Unbound AUC in nude mouse at 50 mg/kg; format: ADME, organism-based; parameters: dose 50 mg/kg; conditions: in vivo
Mus musculus [10] = assay: Unbound AUC in nude mouse at 25 mg/kg; format: ADME, organism-based; parameters: dose 25 mg/kg; conditions: in vivo
Mus musculus [11] = assay: Unbound AUC in nude mouse at 100 mg/kg; format: ADME, organism-based; parameters: dose 100 mg/kg; conditions: in vivo

T1 sequence (P42336 whole entry, canonical isoform): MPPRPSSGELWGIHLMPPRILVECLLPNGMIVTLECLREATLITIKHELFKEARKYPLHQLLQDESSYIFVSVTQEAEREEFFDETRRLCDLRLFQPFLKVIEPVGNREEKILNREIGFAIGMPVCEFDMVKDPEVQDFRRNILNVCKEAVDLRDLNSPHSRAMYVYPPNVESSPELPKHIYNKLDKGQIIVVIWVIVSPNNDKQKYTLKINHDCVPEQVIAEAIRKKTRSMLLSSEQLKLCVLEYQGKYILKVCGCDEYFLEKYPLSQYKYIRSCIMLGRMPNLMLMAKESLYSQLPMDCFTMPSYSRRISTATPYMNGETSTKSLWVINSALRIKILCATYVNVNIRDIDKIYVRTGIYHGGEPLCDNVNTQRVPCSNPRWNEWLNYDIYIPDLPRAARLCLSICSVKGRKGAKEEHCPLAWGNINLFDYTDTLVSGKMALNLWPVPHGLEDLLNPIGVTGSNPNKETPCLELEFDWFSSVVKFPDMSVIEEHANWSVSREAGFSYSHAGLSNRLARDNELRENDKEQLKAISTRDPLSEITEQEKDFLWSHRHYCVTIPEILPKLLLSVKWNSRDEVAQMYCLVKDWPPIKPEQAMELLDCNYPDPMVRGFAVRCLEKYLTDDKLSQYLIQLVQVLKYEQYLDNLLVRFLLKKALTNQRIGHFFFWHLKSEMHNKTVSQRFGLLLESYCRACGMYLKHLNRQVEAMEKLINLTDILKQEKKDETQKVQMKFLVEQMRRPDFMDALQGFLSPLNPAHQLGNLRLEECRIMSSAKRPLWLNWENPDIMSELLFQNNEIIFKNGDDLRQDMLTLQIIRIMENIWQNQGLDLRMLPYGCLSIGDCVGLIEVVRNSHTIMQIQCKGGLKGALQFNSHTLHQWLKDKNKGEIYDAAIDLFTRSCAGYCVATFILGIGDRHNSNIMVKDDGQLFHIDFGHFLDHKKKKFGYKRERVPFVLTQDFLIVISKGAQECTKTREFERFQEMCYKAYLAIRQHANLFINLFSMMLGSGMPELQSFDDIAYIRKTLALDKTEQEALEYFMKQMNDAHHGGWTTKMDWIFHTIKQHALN

| SMILES | IC50 [1] [nM] | CLhep predicted [2] [mL/min/kg] | IC50 [3] [nM] | CLhep predicted [5] [mL/min/kg] | solubility kinetic [6] [µM] | further results |
| --- | --- | --- | --- | --- | --- | --- |
| CN(C(=O)c1cc2c(s1)-c1ccccc1OCC2)C1CCCCC1 |  |  | 885 |  |  |  |
| CC(C)N(C)C(=O)c1cc2c(s1)-c1ccccc1OCC2 |  |  | > 2000 |  |  |  |
| CC(C)n1ncnc1-c1cc2c(s1)-c1ccc(C(N)=O)cc1OCC2 |  | 10 |  | 29 | > 200 | solubility thermodynamic [7]: 53 µg/mL (≈ 150 µM); clearance [8]: 13 mL/min/kg; fAUC (Mus musculus [9]): 13.6 µM·h; Papp A→B [4]: 20 ×10⁻⁶ cm/s; fAUC (Mus musculus [10]): 5.7 µM·h; fAUC (Mus musculus [11]): 17.8 µM·h |
| NC(=O)c1ccc2c(c1)OCCc1cc(-c3ncnn3C3CCC3)sc1-2 | 563 | 19 | 8 | 44 | 37 (≈ 13.6 µg/mL) | clearance [8]: 61 mL/min/kg |
| NC(=O)c1ccc2c(c1)OCCc1cc(-c3ncnn3CCO)sc1-2 | > 1000 | 10 | 15 | 25 | > 200 |  |
| CN(C)CCn1ncnc1-c1cc2c(s1)-c1ccc(C(N)=O)cc1OCC2 |  | 14 | 142 | 38 | 128 (≈ 49.1 µg/mL) |  |
| NC(=O)c1ccc2c(c1)OCCc1cc(-c3ncnn3CC(F)(F)F)sc1-2 | 487 | 7 | 7 | 12 | > 200 | clearance [8]: 11 mL/min/kg |
| CN(C(=O)c1cc2c(s1)-c1ccccc1OCC2)c1ccc(F)cc1F | > 1000 |  | 52 |  |  |  |
| CN(C(=O)c1cc2c(s1)-c1ncccc1OCC2)c1ccccc1Cl | > 1000 |  | 7 |  | 41 (≈ 15.2 µg/mL) |  |
| Clc1ccccc1-n1cnnc1-c1cc2c(s1)-c1ccccc1OCC2 | 74 |  | 7.3 |  | 15 (≈ 5.7 µg/mL) |  |
| Clc1ccccc1-c1ocnc1-c1cc2c(s1)-c1ncccc1OCC2 | 250 |  | 12 |  | 41 (≈ 15.6 µg/mL) |  |

Now from value to molecule, other results behind:

| IC50 [1] [nM] | CLhep predicted [2] [mL/min/kg] | IC50 [3] [nM] | CLhep predicted [5] [mL/min/kg] | solubility kinetic [6] [µM] | SMILES | further results |
| --- | --- | --- | --- | --- | --- | --- |
| 100 | 18 | 1.5 | 43 |  | CN(C(=O)c1cc2c(s1)-c1ccc(C(N)=O)cc1OCC2)c1ccccc1Cl | Papp A→B [4]: 2.1 ×10⁻⁶ cm/s; IC50 (PC-3): > 3500 nM; IC50 (MCF7): > 4100 nM |
| 23 |  | < 0.5 |  | 4 (≈ 1.64 µg/mL) | Nc1nc(-c2cc3c(s2)-c2ccccc2OCC3)c(-c2ccccc2Cl)s1 |  |
| 36 |  | < 1.4 |  | 41 (≈ 17.9 µg/mL) | CC(=O)Nc1nc(-c2cc3c(s2)-c2ncccc2OCC3)c(-c2ccccc2Cl)[nH]1 |  |
| 20 |  | 1.2 |  |  | O=c1[nH]nc(-c2cc3c(s2)-c2ccccc2OCC3)n1-c1ccccc1Cl |  |
| 20 |  | < 0.5 |  | 15 (≈ 6.58 µg/mL) | NC(=O)c1ccc2c(c1)OCCc1cc(-c3n[nH]c(=O)n3-c3ccccc3Cl)sc1-2 |  |
| 279 | 19 | 4 | 49 | > 200 | CC(C)Cn1ncnc1-c1cc2c(s1)-c1ccc(C(N)=O)cc1OCC2 | clearance [8]: 112 mL/min/kg |
| 481 | 11 | 4 | 15 | > 200 | CC(C)(O)Cn1ncnc1-c1cc2c(s1)-c1ccc(C(N)=O)cc1OCC2 | clearance [8]: 57 mL/min/kg |
| 60 |  | < 0.5 |  | 9 (≈ 3.81 µg/mL) | NC(=O)c1ccc2c(c1)OCCc1cc(-c3nncn3-c3ccccc3Cl)sc1-2 |  |
| 42 |  | < 0.5 |  | > 200 | NC(=O)c1ccc2c(c1)OCCc1cc(-c3nnnn3-c3ccccc3Cl)sc1-2 |  |
| 110 |  | 1.2 |  | 4.1 (≈ 1.56 µg/mL) | Fc1ccc(-n2ncnc2-c2cc3c(s2)-c2ccccc2OCC3)c(F)c1 |  |
| 17 | 7 | < 0.5 | 24 | > 200 | NC(=O)c1ccc2c(c1)OCCc1cc(-c3ncnn3-c3ccc(F)cc3F)sc1-2 | solubility thermodynamic [7]: < 1 µg/mL; clearance [8]: 38 mL/min/kg; fAUC (Mus musculus [9]): 0.53 µM·h; Papp A→B [4]: 13 ×10⁻⁶ cm/s; IC50 (PC-3): 180 nM; fAUC (Mus musculus [10]): 0.26 µM·h; fAUC (Mus musculus [11]): 0.54 µM·h; IC50 (MCF7): 23 nM |
| 28 |  | 1 |  | 12 (≈ 5.06 µg/mL) | NC(=O)c1ccc2c(c1)OCCc1cc(-c3n[nH]cc3-c3ccccc3Cl)sc1-2 |  |
